Measurements taken from patent US10155751B2, “Pyrazolyl-substituted heteroaryls and their use as medicaments” (Boehringer Ingelheim International GmbH, priority 2015, dated 2018).

Key:
[1] = system: SYK dependent basophil degranulation (CD63 surface expression on basophils in whole blood); assay: CD63-assay (cellular assay for SYK-inhibition) in whole blood; type: cell-based; conditions: whole blood, DNP/anti-DNP stimulated basophils; read-out: CD63 assay EC50-value (chapter 5.2)
Procedure: In this assay, IgE raised against dinitrophenol (DNP) is incubated in whole blood where it binds to the FcεR1 on basophils. […] CD63 normally resides on the intracellular granule membrane within basophils, which upon degranulation, is then expressed on the surface where it can be detected by flow cytometry. Surface expression of CD63 correlates extremely well with the release of histamine from basophils. The CD63 assay has previously been validated as a clinical target engagement biomarker in the Fostamatinib SYK program (Braselmann et al, J. Pharm. Exp. Therap. 319:998-1008, 2006). Heparinized whole blood is mixed gently (vortex mixer) and […] per test aliquoted into a 96 well plate. Anti-DNP (1 mg/ml) is diluted 1:100 with PBS/0.1% HSA to 10 μg/ml (final concentration: 1 μg/mL). Pre-dilute DNP/BSA (5 mg/ml) to a concentration of 60 ng/ml with washing solution. Compounds: […] Reagents are provided from the Basotest® kit. Incubate 10 μl of 10 μg/ml anti DNP and 10 μl of compound with 100 μl whole blood in a 37° C. pre-warmed water bath. After 30 minutes, 20 μl of STIMULATION BUFFER is added to the whole blood samples and vortexed gently. Incubate the samples for 10 min at 37° C. in a water bath. 100 μl of DNP/BSA is added per test to the whole blood. Add 100 μl of the WASHING SOLUTION to a further test tube as a negative control. Add 100 μl of DNP/BSA (final 30 ng/ml) in the compound tubes. All tubes are mixed once more. The samples are incubated for 20 min at 37° C. in a water bath. Stop degranulation by incubating the samples on ice for 5 min. Add 20 μl of STAINING REAGENT to each tube. Vortex and incubate the tubes for 20 min in an ice bath, covered to prevent exposure to light. The whole blood samples are lysed and fixed with 2 ml of pre-warmed (room temperature) 1×LYSING SOLUTION. Vortex and incubate for 10 min at room temperature. Spin down cells (5 min, 250×g, 4° C.). Discard the supernatant. Add 3 ml of WASHING SOLUTION to the tubes. Centrifuge the tubes (5 min, 250×g, 4° C.). Aspirate the supernatant. Add 200 μl WASHING SOLUTION to the cell pellet, vortex. Incubate the tubes in a covered ice bath until analysis. Cells are analysed by flow cytometry using the blue-green excitation light (488 nm argon-ion laser). Acquire data by using fluorescence triggering in the FL2 channel (PE) to gate on basophilic granulocytes expressing high amounts of IgE. This live gating reduces the amount of data and saves memory capacity. Acquire at least 500 basophils per sample. For data evaluation and calculation, the measurement of the negative control (unstimulated blood) was set as 100% control and the measurement of the positive control (DNP/anti-DNP stimulated blood) was set as 0% control. Based on these values the % value for the measurement of each substance concentration was calculated, a concentration-effect curve fitted and an EC50 value calculated using GraphPad Prism version 6.01 for Windows. The EC50 value was calculated using a nonlinear fitting (log(inhibitor) vs. response—variable slope). Normally, the % control values calculated are between 0% and 100% values but may also occur outside these limits in individual cases based on variability or compound characteristics.

human hepatocytes = assay: Human hepatocyte stability test; type: in vitro ADME; conditions: human hepatocyte suspension, percent of hepatic blood flow
Procedure: A more comprehensive way to measure the metabolic stability of a compound of the instant invention than microsomal stability (section 5.6) is the human hepatocyte stability test as described below. Herein the metabolic degradation for the compound in question is performed in a human hepatocyte suspension.
Human hepatocytes (typically cryopreserved) are incubated in an appropriate buffer system (e.g. Dulbecco's modified eagle medium plus 3.5 μg glucagon/500 mL, 2.5 mg insulin/500 mL and 3.75 mg/500 mL hydrocortison) containing 5% species serum.
Following a (typically) 30 min preincubation in an incubator (37° C., 10% CO2) 5 μl of the solution of the compound to be tested ([…]; from 2 mM in DMSO stock solution diluted 1:25 with medium) are added into 395 μl hepatocyte suspension (cell density is in the range of 0.25-5 Mio cells/mL, typically 1 Mio cells/mL; the final concentration of the compound in question is […], the final DMSO concentration is 0.05%).
The cells are incubated for six hours (incubator, orbital shaker) and samples (25 μl) are taken at 0, 0.5, 1, 2, 4 and 6 hours. Samples are transferred into acetonitrile and pelleted by centrifugation (5 min). The supernatant is transferred to a new 96-deepwell plate, evaporated under nitrogen and resuspended.
The decline of the compound to be tested is analyzed by HPLC-MS/MS.
CLint is calculated as follows CL_INTRINSIC=Dose/AUC=(C0/CD)/(AUD+clast/k)×1000/60.
C0: initial concentration in the incubation [μM], CD: cell density of vital cells [10^6 cells/mL], AUD: area under the data [μM×h], clast: concentration of last data point [μM], k: slope of the regression line for the compound in question decline [h−1].
The calculated in vitro hepatic intrinsic clearance can be scaled up to the intrinsic in vivo hepatic Clearance and used to predict hepatic in vivo blood clearance (CL) by the use of a liver model (well stirred model). CL_INTRINSIC_INVIVO [ml/min/kg]=(CL_INTRINSIC [μL/min/10^6cells]×hepatocellularity[10^6 cells/g liver]×liver factor [g/kg bodyweight])/1000 CL [ml/min/kg]=CL_INTRINSIC_INVIVO [ml/min/kg]×hepatic blood flow [ml/min/kg]/(CL_INTRINSIC_INVIVO [ml/min/kg]+hepatic blood flow [ml/min/kg]) Qh[%]=CL [ml/min/kg]/hepatic blood flow [ml/min/kg]) […]
Hepatocellularity, human: 120×10^6 cells/g liver
Liver factor, human: 25.7 g/kg bodyweight
Blood flow, human: 21 ml/(min×kg)
A satisfying human hepatocyte stability for a compound in question measured by this assay is represented by a Qh<20% (whereby the stability is better, the lower the Qh-value is).

Row | Structure (SMILES) | EC50 [1] [nM] | stability in human hepatocytes (chapter 5.7) HEPhu (human hepatocytes) [% Qh]
1 | C[C@@H](Oc1cc(-c2cnn(C3CCC3)c2)cc2nn(C)c(F)c12)[C@H]1CNC(=O)C1 [Example 1, (R)-4-{(R)-1-[6-(1-Cyclobutyl-1H-pyrazol-4-yl)-3-fluoro-2-methyl-2H-indazol-4-yloxy]-ethyl}-pyrrolidin-2-one] | 41 | 10
2 | CC(C)n1cc(-c2cc(O[C@H](C)[C@H]3CNC(=O)C3)c3c(F)n(C)nc3c2)cn1 [Example 2, (R)-4-{(R)-1-[3-Fluoro-6-(1-isopropyl-1H-pyrazol-4-yl)-2-methyl-2H-indazol-4-yloxy]-ethyl}-pyrrolidin-2-one] | 45 | <4
3 | Cc1c2c(O[C@H](C)[C@H]3CNC(=O)O3)nc(-c3cnn(C(C)(C)C)c3)cc2nn1C [Example 3, (R)-5-{(R)-1-[6-(1-tert-Butyl-1H-pyrazol-4-yl)-2,3-dimethyl-2H-pyrazolo[4,3-c]pyridin-4-yloxy]-ethyl}-oxazolidin-2-one] | 51 | 7
4 | Cc1c2c(O[C@H](C)[C@H]3CNC(=O)C3)nc(-c3c[nH]nc3C(C)(C)C)cc2nn1C [Example 4, (R)-4-{(R)-1-[6-(3-tert-Butyl-1H-pyrazol-4-yl)-2,3-dimeth-yl-2H-pyrazolo[4,3-c]pyridin-4-yloxy]-ethyl}-pyrrolidin-2-one] | 64 | 10
5 | C[C@@H](Oc1cc(-c2cnn(C3CC3)c2)cc2nn(C)c(F)c12)[C@H]1CNC(=O)C1 [Example 5, (R)-4-{(R)-1-[6-(1-Cycloprop-yl-1H-pyrazol-4-yl)-3-fluoro-2-methyl-2H-indazol-4-yloxy]-ethyl}-pyrrolidin-2-one] | 52 | <4
6 | C[C@@H](Oc1cc(-c2cnn(CC3CC3)c2)cc2nn(C)c(F)c12)[C@H]1CNC(=O)C1 [Example 6, (R)-4-{(R)-1-[6-(1-Cycloprop-ylmethyl-1H-pyrazol-4-yl)-3-fluoro-2-methyl-2H-indazol-4-yloxy]-ethyl}-pyrrolidin-2-one] | 42 | 6
7 | C[C@@H](Oc1cc(-c2cnn(C3CCC(F)(F)C3)c2)cc2nn(C)c(F)c12)[C@H]1CNC(=O)C1 (some centres unmarked) [Example 7] | 53 | <4
8 | Cc1c2c(O[C@H](C)[C@H]3CNC(=O)C3)cc(-c3cnn(CC4CC4)c3)cc2nn1C [Example 8, (R)-4-{(R)-1-[6-(1-Cyclopropylmethyl-1H-pyrazol-4-yl)-2,3-dimethyl-2H-indazol-4-yloxy]-ethyl}-pyrrolidin-2-one] | 47 | 5
9 | Cc1c2c(O[C@H](C)[C@H]3CNC(=O)C3)cc(-c3cnn([C@@H]4CCOC(C)(C)C4)c3)cc2nn1C [Example 9, (R)-4-((R)-1-{6-[1-((R)-2,2-Dimethyl-tetrahydro-pyran-4-yl)-1H-pyrazol-4-yl]-2,3-dimethyl-2H-indazol-4-yloxy}-ethyl)-pyrrolidin-2-one] | 52 | 6
10 | Cc1c2c(O[C@H](C)[C@H]3CNC(=O)C3)cc(-c3cnn([C@H]4CO[C@@H]5CCCO[C@@H]54)c3)cc2nn1C [Example 10, 4-(1-{6-[(R)-(3S,3aR,7aR)-1-(Hexahydro-furo[3,2-b]pyran-3-yl)-1H-pyrazol-4-yl]-2,3-dimethyl-2H-indazol-4-yloxy}-ethyl)-pyrrolidin-2-one] | 65 | 9
11 | Cc1c2c(O[C@H](C)[C@H]3CNC(=O)C3)cc(-c3cnn(CCF)c3)cc2nn1C [Example 11, (R)-4-((R)-1-{6-[1-(2-Fluoro-ethyl)-1H-pyrazol-4-yl]-2,3-dimethyl-2H-indazol-4-yloxy}-ethyl)-pyrrolidin-2-one] | 65 | 4
12 | C[C@@H](Oc1cc(-c2cnn(CCC(F)(F)F)c2)cc2nn(C)c(F)c12)[C@H]1CNC(=O)C1 [Example 12, (R)-4-((R)-1-{3-Fluoro-2-methyl-6-[1-(3,3,3-trifluoro-propyl)-1H-pyrazol-4-yl]-2H-indazol-4-yloxy}-ethyl)-pyrrolidin-2-one] | 67 | <4
13 | Cc1c2c(O[C@H](C)[C@H]3CNC(=O)C3)cc(-c3cnn(C(C)(C)C)c3)cc2nn1C [Example 13, (R)-4-{(R)-1-[6-(1-tert-Butyl-1H-pyrazol-4-yl)-2,3-dimethyl-2H-indazol-4-yloxy]-ethyl}-pyrrolidin-2-one] | 58 | 3
14 | C[C@@H](Oc1cc(-c2cnn(C3CC(C)(C)OC3(C)C)c2)cc2nn(C)c(F)c12)[C@H]1CNC(=O)C1 (stereo partly drawn) [Example 14, (R)-4-((R)-1-{3-Fluoro-2-methyl-6-[1-(2,2,5,5-tetramethyl-tetrahydro-furan-3-yl)-1H-pyrazol-4-yl]-2H-indazol-4-yloxy}-ethyl)-pyrrolidin-2-one] | 76 | 12
15 | Cc1c2c(O[C@H](C)[C@H]3CNC(=O)C3)cc(-c3cnn(C4CC(C)(C)OC4(C)C)c3)cc2nn1C (stereo partly drawn) [Example 16, (R)-4-((R)-1-{2,3-Dimethyl-6-[1-(2,2,5,5-tetramethyl-tetrahydro-furan-3-yl)-1H-pyrazol-4-yl]2H-indazol-4-yloxy}-ethyl)-pyrrolidin-2-one] | 82 | 6
16 | Cc1c2c(O[C@H](C)[C@H]3CNC(=O)C3)cc(-c3cnn(C(C)(C)C#N)c3)cc2nn1C [Example 17, 2-(4-{2,3-Dimethyl-4-[(R)-1-((R)-5-oxo-pyrrolidin-3-yl)-ethoxy]-2H-indazol-6-yl}-pyrazol-1-yl)-2-methyl-propionitrile] | 92 | 4
